Some test systems named below: SF-268 CNS; RPMI-8226 leukemia; OVCAR-5 ovarian; HS 578T breast; K-562 leukemia; M14 melanoma; HOP-62 NSCLC; NCI-H226 lung.
What all share (assay): NCI tumour cell line growth inhibition, 48 h

Each structure is given as a SMILES string.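 In this assay, cells in 96-well plates receive the compound at five concentrations for 48 hours. Endpoints are linearly interpolated between the surrounding concentrations. Here, GI50 denotes the concentration required for 50% inhibition of growth. TGI is the concentration that stops growth completely.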 Bounds are passed on as bounds.

In the case of `COc1cccc(C2CC(C)(N3CCCC3)Oc3cc4c(cc32)OCO4)c1O` (stereo not given), the TGI was over 92.1 µM in the assay with SF-268 CNS; over 81 µM in the assay on RPMI-8226 leukemia; over 100 µM in the assay on OVCAR-5 ovarian; 57.7 µM in the assay with HS 578T breast; 41.9 µM with K-562 leukemia; over 83.8 µM in the assay with M14 melanoma. The figures for the TGI in the assay with HOP-62 NSCLC and with NCI-H226 lung were 90.1 µM and 55.9 µM, respectively.

Regarding `O=C1NCc2ccc3c(-c4cccc(Cl)c4)c[nH]c3c21`, the GI50 was 0.5 µM in the assay on SF-268 CNS; 0.257 µM in the assay on RPMI-8226 leukemia; 1.62 µM in the assay on OVCAR-5 ovarian; 0.182 µM with HS 578T breast; 0.134 µM with K-562 leukemia; 0.147 µM in the assay with M14 melanoma. For the same compound, the GI50 with HOP-62 NSCLC was 0.324 µM; with NCI-H226 lung, 28.9 µM. Moreover, the TGI was over 50 µM in the assay on SF-268 CNS; 49 µM in the assay on RPMI-8226 leukemia; over 50 µM in the assay with OVCAR-5 ovarian; over 50 µM in the assay with HS 578T breast; over 50 µM with K-562 leukemia; over 50 µM in the assay with M14 melanoma. The TGI in the assay with HOP-62 NSCLC and with NCI-H226 lung was over 50 µM throughout.

`O=[N+]([O-])c1ccc(C(c2c[nH]c3ccccc23)c2c[nH]c3ccccc23)cc1`: the TGI turned out to be 22.5 µM in the assay on SF-268 CNS; 13.4 µM with RPMI-8226 leukemia; 54.4 µM in the assay with OVCAR-5 ovarian; 51.1 µM in the assay on HS 578T breast; 48 µM with K-562 leukemia; 33.2 µM in the assay on M14 melanoma. Also, the TGI was determined as 30.3 µM in the assay with HOP-62 NSCLC and 32.1 µM with NCI-H226 lung.

Take `COc1cc(/C(C#N)=C/c2ccc3c(c2OC)OCO3)cc2c1OCO2`: the GI50 with SF-268 CNS is 0.0969 µM; in the assay with RPMI-8226 leukemia it was 0.146 µM; in the assay on OVCAR-5 ovarian it was 0.823 µM; in the assay on HS 578T breast, 0.0448 µM; with K-562 leukemia, 0.0358 µM; with M14 melanoma it was 0.0477 µM. The results for the GI50 with HOP-62 NSCLC and with NCI-H226 lung were 0.138 µM and 0.603 µM, respectively. Also, the TGI was 15.8 µM with SF-268 CNS; 33.2 µM with RPMI-8226 leukemia; over 80.2 µM in the assay with OVCAR-5 ovarian; 0.4 µM in the assay with HS 578T breast; over 32.9 µM in the assay on K-562 leukemia; 7.81 µM with M14 melanoma. Besides, the TGI in the assay on HOP-62 NSCLC was 14.3 µM; in the assay with NCI-H226 lung, 36.4 µM.

Turning to `COc1cc(C2C=C(c3cccc(NC(C)=O)c3)Nc3ncnn32)cc(OC)c1OC` (stereo not given), the GI50 in the assay with SF-268 CNS is 0.675 µM; with RPMI-8226 leukemia, 3.35 µM; in the assay with HS 578T breast it was 0.153 µM; in the assay with K-562 leukemia, 0.447 µM; in the assay with M14 melanoma it was 0.392 µM; in the assay on HOP-62 NSCLC it was 0.554 µM. Also, the GI50 with NCI-H226 lung was 0.667 µM. The TGI is over 100 µM in the assay on SF-268 CNS; 32.5 µM with RPMI-8226 leukemia; over 100 µM in the assay on OVCAR-5 ovarian; 0.413 µM in the assay on HS 578T breast; over 44.1 µM in the assay with K-562 leukemia; over 100 µM in the assay with M14 melanoma. The TGI in the assay on HOP-62 NSCLC and with NCI-H226 lung was over 100 µM each time.

With `COc1ccc2c(c1)/C(=C\c1c(C)nc3sc(C)cn13)C(=O)N2C`, the GI50 is 4.62 µM in the assay with SF-268 CNS; 4.75 µM with RPMI-8226 leukemia; 19.9 µM in the assay with OVCAR-5 ovarian; 1.83 µM in the assay on HS 578T breast; 1.83 µM with K-562 leukemia; 4.99 µM in the assay on M14 melanoma. In addition, the GI50 with HOP-62 NSCLC was 20.5 µM; in the assay with NCI-H226 lung, 2.74 µM. Moreover, the TGI in the assay on SF-268 CNS is 39 µM; in the assay with RPMI-8226 leukemia, over 100 µM; in the assay on OVCAR-5 ovarian it was over 100 µM; in the assay on HS 578T breast it was 5.4 µM; with K-562 leukemia, over 100 µM; with M14 melanoma it was 61.1 µM. Besides, the TGI was over 100 µM with HOP-62 NSCLC and 15.9 µM in the assay on NCI-H226 lung.

For `COc1ccc(-c2nn3ncccc3c2-c2ccnc(Nc3ccc(Cl)c(C(F)(F)F)c3)n2)cc1`, the GI50 is 11.6 µM in the assay with SF-268 CNS; 8.28 µM in the assay on RPMI-8226 leukemia; 9.39 µM with OVCAR-5 ovarian; 9.15 µM in the assay with HS 578T breast; 10.8 µM in the assay on K-562 leukemia; 11.5 µM with M14 melanoma. Further, the GI50 is 15.5 µM in the assay on HOP-62 NSCLC and 10.5 µM in the assay on NCI-H226 lung. For the same compound, the TGI in the assay on SF-268 CNS, in the assay on RPMI-8226 leukemia, with OVCAR-5 ovarian, in the assay with HS 578T breast, in the assay on K-562 leukemia and with M14 melanoma was over 25 µM throughout. Further, the TGI in the assay with HOP-62 NSCLC and in the assay on NCI-H226 lung was over 25 µM each time.

Consider `C=CCn1c2c(c3ccccc3c1=O)C(=O)c1ccccc1-2`, for which the TGI in the assay on SF-268 CNS, in the assay with RPMI-8226 leukemia, with OVCAR-5 ovarian, in the assay on HS 578T breast, in the assay on K-562 leukemia and with M14 melanoma was over 100 µM in each case. Moreover, the TGI in the assay with HOP-62 NSCLC and with NCI-H226 lung was over 100 µM each time.

For the compound `COc1cc(-c2nn(-c3ccc(NC(=O)c4ccc(Cl)c(Cl)c4)cc3)cc2-c2ccncc2)ccc1Cl`, the GI50 is over 100 µM in the assay on SF-268 CNS; 3.03 µM in the assay on RPMI-8226 leukemia; over 100 µM in the assay with OVCAR-5 ovarian; 4.13 µM in the assay with HS 578T breast; 4.05 µM in the assay on K-562 leukemia; 22.4 µM in the assay on M14 melanoma. Also, the GI50 with HOP-62 NSCLC was 2.28 µM; with NCI-H226 lung, over 100 µM. The TGI is over 100 µM with SF-268 CNS; 14.1 µM with RPMI-8226 leukemia; over 100 µM in the assay on OVCAR-5 ovarian; over 100 µM in the assay on HS 578T breast; over 100 µM with K-562 leukemia; over 100 µM in the assay with M14 melanoma. The values for the TGI in the assay on HOP-62 NSCLC and in the assay with NCI-H226 lung were 7.51 µM and over 100 µM, respectively.

`CCOC(=O)c1ccc(NC(=O)N2CC(C)OC(C)C2)cc1` (stereo not given): the GI50 in the assay on SF-268 CNS, in the assay with RPMI-8226 leukemia, in the assay on OVCAR-5 ovarian, in the assay on HS 578T breast, with K-562 leukemia and in the assay on M14 melanoma was over 100 µM each time. The GI50 with HOP-62 NSCLC and in the assay on NCI-H226 lung was over 100 µM throughout. For the same compound, the TGI in the assay on SF-268 CNS, with RPMI-8226 leukemia, with OVCAR-5 ovarian, in the assay with HS 578T breast, in the assay with K-562 leukemia and in the assay on M14 melanoma was over 100 µM in each case. The TGI with HOP-62 NSCLC and in the assay with NCI-H226 lung was over 100 µM each time.

The values above are taken from PubChem BioAssay (NCI).
